Earlier results on 1 compound are cited in patent US10106508B2, “Quinazoline heterocyclic compound as EGFR kinase inhibitor and preparation and application thereof” (BEIJING SCITECH-MQ PHARMACEUTICALS LIMITED, priority 2015, dated 2018).

Each structure is given as a SMILES string.

Usually IC50 stands for the concentration that gives 50% inhibition.

The test system of one data set is remaining 81 kinase. The conditions noted are these: screening of 85 kinases; selectively inhibits EGFR and 3 other mutants; cited from earlier work.
A further data set has as its target EGFR (Homo sapiens (Human), UniProt P00533). As to conditions: molecular level; read-out: IC50 against EGFR activity; cited from earlier work.

EGFR, sequence (P00533 25-1210): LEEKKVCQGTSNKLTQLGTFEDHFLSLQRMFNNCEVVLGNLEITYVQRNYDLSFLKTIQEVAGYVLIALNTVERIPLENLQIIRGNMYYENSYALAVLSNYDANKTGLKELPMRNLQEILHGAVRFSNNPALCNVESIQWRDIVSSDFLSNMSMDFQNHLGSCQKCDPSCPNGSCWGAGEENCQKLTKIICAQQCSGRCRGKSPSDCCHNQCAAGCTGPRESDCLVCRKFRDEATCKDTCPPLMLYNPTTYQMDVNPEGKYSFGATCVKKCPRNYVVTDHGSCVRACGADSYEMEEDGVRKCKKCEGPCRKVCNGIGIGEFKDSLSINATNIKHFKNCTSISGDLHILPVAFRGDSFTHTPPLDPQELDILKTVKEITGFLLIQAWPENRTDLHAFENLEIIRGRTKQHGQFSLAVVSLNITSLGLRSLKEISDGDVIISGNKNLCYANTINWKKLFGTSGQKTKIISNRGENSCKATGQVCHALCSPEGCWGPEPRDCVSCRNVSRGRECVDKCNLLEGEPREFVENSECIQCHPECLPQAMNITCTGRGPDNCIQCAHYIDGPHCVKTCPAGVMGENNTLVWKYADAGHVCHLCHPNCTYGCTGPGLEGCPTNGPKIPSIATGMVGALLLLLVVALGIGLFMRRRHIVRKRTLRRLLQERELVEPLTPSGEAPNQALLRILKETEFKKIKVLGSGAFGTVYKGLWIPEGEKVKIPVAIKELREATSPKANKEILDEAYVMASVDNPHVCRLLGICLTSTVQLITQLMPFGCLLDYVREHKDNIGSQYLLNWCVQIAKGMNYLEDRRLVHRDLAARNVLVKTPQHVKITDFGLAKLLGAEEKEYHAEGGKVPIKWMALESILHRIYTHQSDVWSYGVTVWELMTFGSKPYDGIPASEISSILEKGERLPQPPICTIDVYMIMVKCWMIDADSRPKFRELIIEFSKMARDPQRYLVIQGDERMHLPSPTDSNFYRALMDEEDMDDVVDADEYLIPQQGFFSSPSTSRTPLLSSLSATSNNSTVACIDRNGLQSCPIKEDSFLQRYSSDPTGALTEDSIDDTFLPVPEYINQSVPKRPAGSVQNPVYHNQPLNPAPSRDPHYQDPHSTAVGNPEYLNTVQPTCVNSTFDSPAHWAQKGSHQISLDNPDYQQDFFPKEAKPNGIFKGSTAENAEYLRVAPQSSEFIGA

On to `C#Cc1cccc(Nc2ncnc3cc4c(cc23)OCCOCCOCCO4)c1` [icotinib, Icotinib], for which the “effect on the remaining 81 kinase” value in the data set with remaining 81 kinase is on record as “no significant effect”. For the same compound, the IC50 on EGFR is 5 µM.
